From publication PMC10854695, “Using Flavonoid Substitution Status to Predict Anticancer Effects in Human Melanoma Cancers: An In Vitro Study” (Cancers, 2024) come the findings set out here.

In data set [1] the test system is A375 melanoma cells.
Data set [2] relates to C32 melanoma cells.
Experimental: (§1) The MTT colorimetric assay was performed as a preliminary evaluation of the cytotoxicity of the selected flavonoids according to the method described and validated by Strawa et al. [21]. Briefly, melanoma cells and fibroblasts were seeded in 96-well microplates at a density of 1 × 10^4 cells per well. Fibroblasts were used as a control cell line in order to assess the selectivity of the compounds. […] Subsequently, the cells were washed with PBS, incubated with MTT solution for 2 h, and lysed with dimethyl sulfoxide (DMSO) supplemented with 1% (v/v) Sorensen’s glycine buffer. The absorbance was measured using a microplate reader (EPOCH 2, BioTek, Winooski, VT, USA) at a wavelength of 570 nm. The compounds were used at a final DMSO concentration of no more than 0.1% (v/v) in each well. The results were generated from at least three independent experiments. […] The IC50 values were calculated with GraphPad Prism 9 software (GraphPad Software, San Diego, CA, USA).
Data set [3] concerns human skin fibroblasts (CCD25Sk).
In data set [4] the test system is A375 melanoma cells. The source holds these as a separate data set.
Data set [5] deals with C32 melanoma cells. This is another data set of the same source.
Experimental: (§2) The NRU (neutral red uptake) was conducted as previously described by Szoka and co-workers, with some modifications [22]. Briefly, melanoma cells and fibroblasts were seeded in microplates at the density of 1 × 10^4 cells per well and allowed to adhere for 24 h. […] After treatment, the culture medium was replaced with a neutral red solution (40 µg/mL). An additional 2 h of incubation was performed. The neutral red solution was then removed and the neutral red accumulated in the cells was dissolved in 50% EtOH with 1% of the glacial acetic acid. The absorbance was estimated at 540 nm and IC50 values were calculated using GraphPad Prism software (GraphPad Software, San Diego, CA, USA).
Data set [6] deals with human skin fibroblasts (CCD25Sk). This is another data set of the same source.
Data set [7] has as its system C32 melanoma cells. Kind of data set: Neutral red uptake (NRU) assay, C32. The following applies: read-out: IC50, cytotoxic activity, NRU assay.
Experimental: as §2
Data set [8] relates to A375 melanoma cells. Kind of data set: Neutral red uptake (NRU) assay, A375. Conditions: read-out: IC50, cytotoxic activity, NRU assay.
Data set [9] deals with human skin fibroblasts (CCD25Sk). Kind of data set: Neutral red uptake (NRU) assay, normal cells. Conditions: read-out: IC50, cytotoxic activity, NRU assay, Normal cells (fibroblasts).
In data set [10] the test system is A375 melanoma cells. Kind of data set: [3H]-thymidine incorporation (DNA biosynthesis), A375. The following applies: read-out: IC50, effect on DNA biosynthesis ([3H]-thymidine incorporation). The class given is cell-based, human. On the technique in general: Uptake of a labelled nucleoside into DNA is a usual measure of proliferation.
Experimental: (§3) The inhibition of DNA biosynthesis was evaluated using [^3H]-thymidine incorporation into the DNA of melanoma cells (C32, A375) and fibroblasts treated with the studied compounds [21]. The cells were briefly seeded in 24-well plates (1 × 10^5 cells per well) and allowed to adhere for 24 h. […] After incubation for 24, 48, and 72 h, the cells were rinsed three times with PBS. Then, cells were lysed in 1 mL of 0.1 M NaOH containing 1% SDS. The cell lysate was moved into scintillation vials containing scintillation liquid, and the radioactivity of the samples was measured using a liquid scintillation analyzer (Perkin-Elmer, Waltham, MA, USA).
In data set [11] the test system is C32 melanoma cells. In words: [3H]-thymidine incorporation (DNA biosynthesis), C32. The class given is cell-based, human. Conditions: read-out: IC50, effect on DNA biosynthesis ([3H]-thymidine incorporation).
Experimental: as §3
Data set [12] has as its system human skin fibroblasts (CCD25Sk). In words: [3H]-thymidine incorporation (DNA biosynthesis), normal cells. The data set is classed as cell-based. Conditions: Homo sapiens, Skin fibroblast, read-out: IC50, effect on DNA biosynthesis ([3H]-thymidine incorporation).
Experimental: as §3
For data set [13], the system named is A375 melanoma cells. In words: Apoptosis assay, annexin V/PI flow cytometry, A375. The following applies: A375, 50 µM, 48 h. The data set is classed as cell-based, human.
Experimental: Firstly, cells were placed in 6-well plates at a density of 1 × 10^5 cells per well and allowed to adhere for 24 h. Then, cells were treated with 25 µM, 50 µM, and 100 μM of the selected flavonoids (1, 6, 15, 16, 17, 37) and incubated for 48 h. Floating and adherent cells were collected and assayed using the manufacturer’s protocol supported by the Dead Cell Apoptosis Kit for flow cytometry. Concisely, 100 μL of an annexin-binding buffer containing a 5 μL annexin V-FITC conjugate solution and 1 μg/mL PI (propidium iodide) was used to disperse the cells. After 15 min of incubation, an additional 400 μL of the mentioned buffer was added. The cells were analyzed with a DxFLEX flow cytometer (Beckman Coulter, Brea, CA, USA).
Data set [14] deals with caspases, PARP, phospho-RSK in A375 cells. Kind of data set: Western immunoblot of apoptosis mediators and RSK, A375. The following applies: A375, 48 h, Western blot. The class given is cell-based, human.
Experimental: (§4) Floating cells were harvested by centrifugation of the conditioned media (300× g, 5 min). Cell pellet and adherent cells were lysed in a cell lysis buffer supplemented with inhibitors of proteases and phosphatases. The cell lysate was sonicated (2 × 10 s) on ice with an ultrasonic homogenizer (UP200S, Hielscher Ultrasonics GmbH, Teltow, Germany) and centrifuged for 10 min at 10,000× g. The supernatant was collected and stored in a freezer at −70 °C. Protein concentrations in the cell supernatants were determined using a Lowry assay. Obtained proteins were dissolved on SDS-PAGE gels (7.5%, 10%, or 12%) using the Mini-Protean Tetra system. The proteins were transferred to nitrocellulose membranes using the Mini Trans-Blot Cell wet blotting system. The 5% skim milk was used to block membranes. Then, membranes were probed for 24 h at 4 °C with the following antibodies: anti-phospho-RSK, anti-RSK, anti-PARP, anti-cleaved PARP, anti-caspase-8, anti-caspase-9, anti-caspase-7, anti-caspase-3, and anti-actin. Membranes were incubated with an ECL-HRP (enhanced chemiluminescence-horseradish peroxidase) substrate, and the signal was spotted using the BioSpectrum Imaging System and VisionWorks LS software 7.0 (Ultra-Violet Products, Ltd., San Gabriel, CA, USA). The intensity of the bands was quantified by densitometric analysis using UVIBand software, version 15.08d (Uvitec Ltd., Cambridge, UK).
The subject of data set [15] is caspases, PARP, phospho-RSK in C32 cells. In words: Western immunoblot of apoptosis mediators and RSK, C32. The class given is cell-based, human. The following applies: C32, 48 h, Western blot. In general terms: Immunoblotting shows a protein as a band on a membrane.
Experimental: as §4
Data set [16] has as its system cleaved caspase-3 and cleaved caspase-7 in C32 cells. Kind of data set: Immunofluorescence of cleaved caspase-3/-7, C32. The following applies: C32, 48 h, immunofluorescent staining. The data set is classed as cell-based, human.
Experimental: Firstly, to examine fluorescent signals, cells were placed in the bottom of 96-well black plates at 1 × 10^4 cells per well and permitted to adhere for 24 h. […] After incubating and removing the medium, cells were fixed in 4% paraformaldehyde for 15 min. Later, cells were rinsed three times with PBS and permeabilized with 0.1% Triton X-100 for 5 min at room temperature. The 10% heat-inactivated goat serum in the PBS was used to block non-specific binding. Subsequently, cells were treated with the following antibodies overnight: anti-cleaved caspase 3 and anti-cleaved caspase-7. […] Cell nuclei were stained with Hoechst 33342 and F-actin was stained with Phalloidin-Atto 488. Fluorescent signals were captured using a BD Pathway 855 confocal microscope (Becton Dickinson, Franklin Lakes, NJ, USA). The mean fluorescence intensity was calculated using ImageJ software (National Institutes of Health, Bethesda, Rockville, MD, USA).
The subject of data set [17] is C32 melanoma cells. Kind of data set: MTT cell viability assay, C32.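 Further: MTT added for 2 h, cells lysed in DMSO, absorbance read at 570 nm, compound vehicle kept at or below 0.1% DMSO.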 Conditions: read-out: IC50, cytotoxic activity, MTT test. A general note: Tetrazolium assays rely on reduction of a dye to a coloured formazan, in cell work by metabolically active cells.
Experimental: as §1
Data set [18] deals with A375 melanoma cells. Kind of data set: MTT cell viability assay, A375.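 Further: Read-out is formazan absorbance at 570 nm after 2 h with MTT, with compounds in at most 0.1% v/v DMSO.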 The following applies: read-out: IC50, cytotoxic activity, MTT test.
Data set [19] is described as follows: MTT cell viability assay, normal cells.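 Further: fibroblasts served as non-cancer comparison line for selectivity versus melanoma cells, MTT reduction read as absorbance at 570 nm after 2 h dye exposure, compounds in ≤0.1% DMSO.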 The following applies: human.
Data set [20] in a line: Neutral red uptake (NRU) assay, normal cells. The following applies: human.
Data set [21] relates to human skin fibroblasts (CCD25Sk). In words: MTT cell viability assay, normal cells.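 Further: fibroblasts served as non-cancer comparison line for selectivity versus melanoma cells, MTT reduction read as absorbance at 570 nm after 2 h dye exposure, compounds in ≤0.1% DMSO.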 The following applies: read-out: IC50, cytotoxic activity, MTT test, Normal cells (fibroblasts).

Where two headings read alike, the source gives them in different places. Some results are limits rather than exact numbers.

As to `O=c1cc(-c2ccc(O)c(O)c2)oc2cc(OC3OC(CO)C(O)C(O)C3OC3OCC(O)C(O)C3O)cc(O)c12` (stereo not drawn) [Compound 9, luteolin 7-O-sambubioside], the IC50 (in the data set with A375 melanoma cells [1]; in the data set on C32 melanoma cells [2]; in [3]; with A375 melanoma cells [4]; in the data set with C32 melanoma cells [5]; in data set [6]) was greater than 200 µM in each case.
For the compound `CC(=O)Oc1ccc(-c2cc(=O)c3c(O)cc(O)c([C@@H]4OC[C@@H](O)[C@H](O)[C@H]4O[C@@H]4O[C@H](CO)[C@@H](O)[C@H](O)[C@H]4O)c3o2)cc1O` [Compound 10, 5,7,3′-trihydroxy-4′-acetoxy-flavone-8-C-xyloside-2″-O-glucoside], the IC50 in the data set with A375 melanoma cells [1] was greater than 200 µM; in the data set with C32 melanoma cells [2], greater than 200 µM; in data set [3], greater than 200 µM; in the data set on C32 melanoma cells [7] (C32, 24 h) it was greater than 200 µM; with C32 melanoma cells [7] (C32, 48 h) it was greater than 200 µM; in the data set on C32 melanoma cells [7] (C32, 72 h) it was greater than 200 µM. The IC50 with A375 melanoma cells [8] (A375, 24 h) is greater than 200 µM; in the data set with A375 melanoma cells [8] (A375, 48 h) it was greater than 200 µM; with A375 melanoma cells [8] (A375, 72 h) it was greater than 200 µM; in data set [9] (24 h) it was greater than 200 µM; in [9] (48 h), greater than 200 µM; in data set [9] (72 h) it was greater than 200 µM.
Regarding `COc1ccc(-c2cc(=O)c3c(O)cc(O)c([C@@H]4OC[C@@H](O)[C@H](O)[C@H]4O[C@@H]4O[C@H](CO)[C@@H](O)[C@H](O)[C@H]4O)c3o2)cc1O` [Compound 11, 5,7,3′-trihydroxy-4′-methoxyflavone-8-C-xyloside-2″-O-glucoside], the IC50 was greater than 200 µM in the data set with A375 melanoma cells [1]; greater than 200 µM in the data set on C32 melanoma cells [2]; greater than 200 µM in [3]; greater than 200 µM with C32 melanoma cells [7] (C32, 24 h); greater than 200 µM in the data set on C32 melanoma cells [7] (C32, 48 h); greater than 200 µM in the data set with C32 melanoma cells [7] (C32, 72 h). Further, the IC50 with A375 melanoma cells [8] (A375, 24 h) was greater than 200 µM; in the data set on A375 melanoma cells [8] (A375, 48 h) it was greater than 200 µM; in the data set with A375 melanoma cells [8] (A375, 72 h) it was greater than 200 µM; in [9] (24 h), greater than 200 µM; in [9] (48 h), greater than 200 µM; in [9] (72 h), greater than 200 µM.
As to `COc1cc(-c2cc(=O)c3c(O)cc(O)c([C@@H]4OC[C@@H](O)[C@H](O)[C@H]4O[C@@H]4O[C@H](CO)[C@@H](OC(C)=O)[C@H](O)[C@H]4O)c3o2)ccc1OC(C)=O` [Compound 12, 5,7-dihydroxy-3′-methoxy-4′-acetoxyflavone-8-C-xyloside-2″-O-(4‴-acetoxy)-glucoside], the IC50 (in the data set with A375 melanoma cells [1]; in the data set on C32 melanoma cells [2]; in [3]; in the data set with A375 melanoma cells [4]; in the data set on C32 melanoma cells [5]; in [6]) was greater than 200 µM in each case.
As for `COc1cc(-c2cc(=O)c3c(O)cc(O)c(C4OCC(O)C(O)C4OC4OC(CO)C(OC(C)=O)C(O)C4O)c3o2)ccc1OC(C)=O` (stereo not drawn) [Compound 13, 5,7-dihydroxy-3′-methoxy-4′-acetoxyflavone-8-C-arabinoside-2″-O-(4‴-acetoxy)-glucoside], the IC50 (in the data set with A375 melanoma cells [1]; in the data set with C32 melanoma cells [2]; in data set [3]; in the data set with A375 melanoma cells [4]; with C32 melanoma cells [5]; in data set [6]) was greater than 200 µM each time.
As for `O=c1c(-c2ccc(O)cc2)coc2cc(O)cc(O)c12` [Compound 37, genistein], the IC50 is 28 ± 0.8 µM with A375 melanoma cells [10] (A375, 48 h); 154 ± 10.8 µM with A375 melanoma cells [10] (Homo sapiens, A-375, A375, 24 h); 28.1 ± 0.87 µM with A375 melanoma cells [10] (Homo sapiens, A-375, A375, 48 h); 24.2 ± 1.5 µM with A375 melanoma cells [10] (Homo sapiens, A-375, A375, 72 h); 18.5 ± 0.7 µM in the data set on C32 melanoma cells [11] (C32, 48 h); 25.4 ± 1.3 µM with C32 melanoma cells [11] (Homo sapiens, C32, C32, 24 h). Further, the IC50 in the data set on C32 melanoma cells [11] (Homo sapiens, C32, C32, 48 h) is 18.5 ± 0.21 µM; with C32 melanoma cells [11] (Homo sapiens, C32, C32, 72 h), 19.1 ± 0.3 µM; in data set [12] (24 h) it was greater than 200 µM; in data set [12] (48 h) it was greater than 200 µM; in data set [12] (72 h) it was greater than 200 µM; in the data set with C32 melanoma cells [17] (Homo sapiens, C32, 24 h), greater than 200 µM. The IC50 in the data set on C32 melanoma cells [17] (Homo sapiens, C32, 48 h) is greater than 200 µM; in the data set with C32 melanoma cells [17] (Homo sapiens, C32, 72 h), 51.1 ± 3.5 µM; with A375 melanoma cells [18] (Homo sapiens, A-375, 24 h), 93.1 ± 5.8 µM; in the data set on A375 melanoma cells [18] (Homo sapiens, A-375, 48 h), 60.9 ± 4.2 µM; in the data set with C32 melanoma cells [7] (Homo sapiens, C32, 24 h), 100 to 200 µM; in the data set with C32 melanoma cells [7] (Homo sapiens, C32, 48 h), 31.5 ± 2.8 µM. In addition, the IC50 is 14.4 ± 2.1 µM in the data set on C32 melanoma cells [7] (Homo sapiens, C32, 72 h); 49.2 ± 3.2 µM with A375 melanoma cells [8] (Homo sapiens, A-375, 24 h); 32.3 ± 3.5 µM in the data set with A375 melanoma cells [8] (Homo sapiens, A-375, 48 h); 19.3 ± 2.2 µM with A375 melanoma cells [8] (Homo sapiens, A-375, 72 h). Moreover, the “level of early apoptotic cells” value in the data set on A375 melanoma cells [13] is on record as 38.1 ± 4.2%. Moreover, the “level of late apoptotic cells” value in the data set on A375 melanoma cells [13] was determined as 8.9 ± 1.9%. In addition, the “cleavage of initiator caspases, caspase-9 and caspase-8” value in [14] is listed as “cleavage of both initiator caspases”. In addition, the “levels of the caspases-3 and -7 zymogens” value in [14] is “decreased levels”. Besides, the “phosphorylation of the RSK protein” value in data set [14] is “impaired”. In addition, the “cleaved PARP and caspase-9” value in data set [15] is “generated cleaved PARP and caspase-9”. Moreover, in data set [15], the “phosphorylation of RSK” value is on record as “inhibited”. In data set [16], the caspase-3 expression entry is “notably extended”. The IC50 at 24 h in data set [19] and in data set [20] was greater than 200 µM each time. Also, the IC50 at 48 h in [19] is 100 to 200 µM; in data set [20], 57.8 ± 4 µM. Also, the IC50 at 72 h in data set [19] came to 56.8 ± 4.1 µM; in data set [20], 38.6 ± 3.7 µM.
For “kaempferol 3-O-galactoside [Compound 22]”, the IC50 in the data set with C32 melanoma cells [17] (C32, 24 h) was greater than 200 µM; in the data set on C32 melanoma cells [17] (C32, 48 h), greater than 200 µM; in the data set with C32 melanoma cells [17] (C32, 72 h) it was greater than 200 µM; with A375 melanoma cells [18] (A375, 24 h), greater than 200 µM; with A375 melanoma cells [18] (A375, 48 h), greater than 200 µM; with A375 melanoma cells [18] (A375, 72 h), greater than 200 µM. Besides, the IC50 in the data set with C32 melanoma cells [7] (C32, 24 h) is greater than 200 µM; with C32 melanoma cells [7] (C32, 48 h), greater than 200 µM; in the data set on C32 melanoma cells [7] (C32, 72 h), greater than 200 µM; in the data set with A375 melanoma cells [8] (A375, 24 h) it was greater than 200 µM; with A375 melanoma cells [8] (A375, 48 h), greater than 200 µM; in the data set on A375 melanoma cells [8] (A375, 72 h), greater than 200 µM. The IC50 in data set [21] (24 h), in data set [21] (48 h), in data set [21] (72 h), in data set [9] (24 h), in data set [9] (48 h) and in data set [9] (72 h) was greater than 200 µM each time.
